# Patent US20100035822A1, “PROLINE-RICH PEPTIDES, PHARMACEUTICAL COMPOSITION, USE OF ONE OR MORE PEPTIDES AND METHOD OF TREATMENT” (priority 2006, published 2010)
# Entries after “also recorded” stand apart in the source; their conditions may differ.
# Legend:
# [1] = tested on: SK-N-AS cells (human neuroblastoma); assay: Free intracellular Ca2+ concentration in SK-N-AS cells (fluo-3 AM, confocal microscopy); type: cell-based; details: 1 μM
# Method: In these experiments the variation in free intracellular calcium [Ca^2+]i concentration was measured in SK-N-AS cells (human neuroblastoma, ATCC No. CRL-2137) after addition of 1 μmolar of peptides SEQ ID NO 1 or SEQ ID NO 8, or of 1 μmolar captopril. Cells were kept in DMEM (Dulbecco Modified Medium), supplemented with 10% fetal bovine serum (FBS) and 1% non-essential amino acids, at 5% CO2 atmosphere, at 37° C., and 95% relative humidity. Cells were treated with trypsin, and replicated at adequate cell concentrations.
# Measurements of variation in the concentration of free [Ca^2+]i were performed with a confocal microscope LSM 510 (Zeiss, Jena, Germany), as described by Martins et al., (Martins et al., Neuronal differentiation of P19 embryonal carcinoma cells modulates kinin B2 receptor gene expression and function. J. Biol. Chem. 280: 19576-19586, 2005). Approximately 5×10^4 SK-N-AS cells were plated on 60 mm plates 24 hours prior to measurement, and then treated with 4 μM fluo-3 AM (Invitrogen Corporation) in 0.5% DMSO and 0.1% non-ionic surfactant pluronic acid F-127 for 30 minutes at 37° C. Cells were washed with DMEM containing 10% FBS, and transferred to defined medium (5 μg/ml insulin, 30 μg/ml transferrin, 20 μM ethanolamine, 30 nM sodium selenite, 1 μM sodium pyruvate, 1% non-essential amino acids, 1 mM glutamine, 100 μg/ml penicillin, 100 μg/ml streptomycin, 10 mM HEPES pH 7.4 in DMEM). The fluorescent fluo-3 AM was excited at 488 nm, and the fluorescence measured at 526 nm.
# Variations in the [Ca^2+]i were measured in non-stimulated cells, and in cells stimulated with peptides SEQ ID NO 1 or SEQ ID NO 8, or with captopril (Sigma Aldrich). Increase of fluorescence was monitored for 2 minutes, and images were acquired in 256×256 pixels every second. At the end of each experiment, 5 μM ionophore (4-Br-A23187) were added, followed by 10 mM EGTA, or 20 μM digitonin to determine maximum and minimum fluorescence, Fmax and Fmin respectively, as described by Grynkiewicz et al., (1985).
# Intracellular calcium concentrations [Ca^2+]i, related to fluorescence (F) values obtained after addition of peptides SEQ ID NO 1 or SEQ ID NO 8, were calculated with the equation: [Ca^2+]=Kd(F−Fmin)/(Fmax−F), assuming Kd=450 nM for fluo-3 AM (Hallett et al., 1990).
# [2] = tested on: spontaneously hypertensive rats (SHR); assay: Anti-hypertensive action on SHR anaesthetized with pentobarbitone; type: in vivo, rat
# Method: Adult male SHR, weighing between 250 and 350 g, were used. Material and methods described in Example 12 were employed, except for those described below.
# 1) Five SHR per group were anaesthetized intraperitoneally with 60 mg/Kg body weight with sodium pentobarbitone. Mean arterial blood pressure and heart rate were continuously calculated from arterial blood pressure pulses (PAP). Cardiovascular parameters were monitored during 30 minutes before i.v. administration of peptides SEQ ID NO 1, or SEQ ID NO 4, or SEQ ID NO 8 (71 nmoles/Kg body weight), or captopril (10 μmoles/Kg body weight), in a final volume of 0.5 mL 0.9% NaCl solution. The control was the vehicle (0.9% NaCl). PAM and heart rate were continuously monitored up to 180 minutes after administration of the anti-hypertensive compound.
# 2) The day before measurements, the SHR underwent surgery for catheter implantation into the femoral artery and vein. […] Cardiovascular parameters of the rats were monitored for 60 minutes before i.v. administration of peptides SEQ ID NO 1, or SEQ ID NO 4, or SEQ ID NO 8 (71 nmoles/Kg body weight), or captopril (10 μmoles/Kg body weight), in a final volume of 0.5 mL 0.9% NaCl solution. […] MAP and heart rate were continuously monitored up to 360 minutes after administration of the peptides.
# Results, presented in FIG. 14B, are expressed as mean±SEM. […]
# [3] = tested on: spontaneously hypertensive rats (SHR); assay: Anti-hypertensive effect on mean arterial blood pressure of SHR; type: in vivo, rat
# Method: In vivo studies on the effect of peptides of the present invention were performed on adult male spontaneously hypertensive rats, and normotensive Wistar rats (Rattus novergicus) weighing 250 to 350 g. Animals had free access to chow (Nuvilab) and water, and were submitted to a light-dark cycle of 12 hours each. Procedures involving animals and their care were conducted according to Giles [Giles A. R. Guidelines for the use of animals in biomedical research. Thromb. Haemost. 58: 1078-1084, 1987]. […]
# The cardiovascular parameters (pulse arterial pressure (PAP), mean arterial pressure (MAP), and heart rate (HR)) were monitored by a solid-state strain gauge transducer connected to a computer through a data acquisition system (MP 100; BIOPAC Systems, Inc, Santa Barbara, Calif., USA). The PAP, MAP and HR were continuously presented in different monitor channels and recorded in the computer hard disk for late analysis.
# Before drug administration, cardiovascular parameters of the rats were monitored for 40 minutes. […] Arterial blood pressure and heart frequency were continuously monitored for 360 minutes.
# Results were expressed as the mean variation of MAP±standard deviation. […]
Molecule,change of intracellular [Ca2+]i [1],effect of pentobarbitone on the anti-hypertensive action [2],dose of optimum anti-hypertensive activity ([3]; effect is reduced at higher and at lower doses),"molar dose needed for anti-hypertensive activity relative to the peptides ([3]; e.g. 10 μmoles/Kg, the dose that inhibits ACE in vivo)"
<ENWPHPQIPP [SEQ ID NO 8],Increase,susceptible to the action of pentobarbitone,~71 nmoles/Kg of body weight,–
"CC(CS)C(=O)N1CCC[C@@H]1C(=O)O (stereo partly drawn) [captopril, D-3-mercapto-2-methyl-1-oxopropyl-L-proline, reference compound]",no change; also recorded: did not cause any change,not blocked by pentobarbitone,–,approximately 1000 fold
